The values below come from PMC6892276 (European Journal of Pharmaceutical Sciences, 2019).

One series deals with hERG. Further details: method as in Bavetsias et al., 2012. The note with it: ref Bavetsias et al., 2012; read-out: hERG blockade IC50; cited from earlier work. In general terms: The hERG channel carries a current that helps repolarise heart muscle cells.
A further series deals with CYP2D6. More on the design: method as in Bavetsias et al., 2012. The note with it: ref Bavetsias et al., 2012; read-out: CYP2D6 inhibition IC50; cited from earlier work.
The nature of series [1]: CLint in minipig liver microsomes. It counts as in vitro ADME. The note with it: Gottingen, 1 mg/ml, NADPH. The procedure: (§1) All incubations of subcellular fractions and recombinant enzymes were conducted at 37 °C and 800 rpm using a Hamilton Microlab Star liquid handling workstation (Hamilton Robotics (Bonaduz, Switzerland)).
Prior to initiation of the reaction by the addition of NADPH (final concentration 1 mM), an aliquot was removed from each incubation and quenched in ice cold methanol containing internal standard (referred to as T0). NADPH was subsequently added to this solution for matrix matching. The remaining reaction (with addition of NADPH) was allowed to proceed for 60 min. At 0.5, 5, 15, 30 and 60 min aliquots were sampled and quenched as above. Incubations were conducted in singlicate; control incubations (substituting PBS for NADPH) were conducted simultaneously.
(§2) For the purpose of CLint determination, samples were analysed using an Agilent 1290 Infinity ultra high-performance liquid chromatography (UHPLC) system coupled to an Agilent 6520 Quadrupole Time-of-flight mass spectrometer (Agilent Technologies, Stockport, UK). […]
(§3) In vitro data (parent compound LC-MS response) was fitted to a non-linear single exponential model using the software GraphPad Prism (v6.07, GraphPad Software, Inc., La Jolla, USA) to determine the elimination rate constant (k). CLint in hepatocytes and liver microsomes was calculated using Eqs. […]
For orientation: Liver microsomes are vesicles of endoplasmic reticulum, rich in cytochrome P450 enzymes.

Details of series [2]: method as in Bavetsias et al., 2012. The note with it: rat; ref Bavetsias et al., 2012; cited from earlier work.
The test system of another series is rCYP3A4. Put plainly: Reaction phenotyping using recombinant CYP, CLint in rCYP3A4. It counts as in vitro ADME, human. To be noted: scaled with ISEF 1.09 and CYP abundance 137 pmol P450/mg; corrected for fuCYP. The procedure: as §1
Recombinant CYP (100 pmol P450/ml) and control bactosome (at an equivalent protein concentration) were prepared in 100 mM KPB. […] The reaction was initiated by the addition of NADPH (final concentration 1 mM) and allowed to proceed for 20 min. At T0 (see Section 2.4.1), 0.5, 5, 10, 15 and 20 min, an aliquot was removed from each incubation and quenched in ice cold methanol containing internal standard.
CLint in rCYP was calculated using Eq. (3) and scaled to μl/min/mg microsomal protein using Eq. (4).(3) CLintμl/min/pmolP450=V·k/pmol protein (4) CLintμl/min/mgmicrosomal protein=CLintμl/min/pmolP450·ISEF·CYPabundance where ISEF is the Intersystem Extrapolation Factor and CYP abundance is amount of each CYP relative to microsomal protein. For rCYP3A4 an ISEF of 1.09 ([Certara, 2017]) and a CYP abundance of 137 pmol P450/mg microsomal protein ([Certara, 2017]) were used.
Unbound CLint (CLint,u) was calculated using Eq. (6).(6) CLint,u=CLint/fu

In a further series the test system is CYP1A2. More on the design: method as in Bavetsias et al., 2012. The note with it: ref Bavetsias et al., 2012; read-out: CYP1A2 inhibition IC50; cited from earlier work.
Series [3] can be described thus: CLint in cryopreserved dog hepatocyte suspensions. Format: in vitro ADME. To be noted: Beagle. The procedure: (§4) Cells were stored in the vapour phase of liquid nitrogen and thawed as per the supplier's instructions (rapid thawing at 37 °C, followed by centrifugation at 50 ×g for 5 min in thawing medium). Hepatocytes were re-suspended in a small volume of incubation medium (WME buffered with HEPES (final concentration 24 mM) adjusted to pH 7.4). Cell density was estimated using a haemocytometer and light microscope and viability determined according to the trypan blue exclusion method; cells were subsequently diluted to the required concentration in incubation medium. […]
as §2, §3

A further series concerns CYP2C19. Further details: method as in Bavetsias et al., 2012. The note with it: ref Bavetsias et al., 2012; read-out: CYP2C19 inhibition IC50; cited from earlier work.
The test system of series [4] is MOLM-13 (human FLT3-ITD positive AML). Further details: method as in Bavetsias et al., 2012. To be noted: ref Bavetsias et al., 2012; cited from earlier work.
Series [5] is described as follows: CLint in cryopreserved mouse hepatocyte suspensions. The note with it: ICR/CD-1, cryopreserved hepatocyte suspensions, pH 7.4, female. Format: in vitro ADME. The procedure:
as §4, §2, §3

Details of series [6]: method as in Bavetsias et al., 2012. The note with it: mouse and rat; ref Bavetsias et al., 2012; cited from earlier work.
In another series the test system is CYP2C9. Further details: method as in Bavetsias et al., 2012. To be noted: ref Bavetsias et al., 2012; read-out: CYP2C9 inhibition IC50; cited from earlier work.
Another series concerns Caco-2. More on the design: method as in Bavetsias et al., 2012. To be noted: ref Bavetsias et al., 2012, cited from earlier work.

The term IC50 denotes the concentration that inhibits the measured activity by half. In general, microsomal CLint refers to a measure of how fast metabolising enzymes remove a compound, apart from limits set by blood flow. A high value points to rapid turnover. A word on the clearance: it is a measure of how efficiently the substance is removed, as volume per time. A word on the hepatocyte CLint: it is the capacity of the preparation to metabolise the compound, expressed as a volume cleared per time. A higher hepatocyte CLint goes with faster metabolism. Consider `Cc1nn(C)cc1-c1nc2c(N3CCN(Cc4ccc(Cl)cc4)CC3)c(Cl)cnc2[nH]1` [CCT241736, 6-Chloro-7-(4-(4-chlorobenzyl)piperazin-1-yl)-2-(1,3-dimethyl-1Hpyrazol-4-yl)-3H-imidazo[4,5-b] pyridine], for which the IC50 is […] in the series with hERG; […] in the series with CYP2D6; […] in the series with CYP1A2; […] in the series with CYP2C19; […] in the series on CYP2C9. The microsomal CLint at 1 μM was […] in series [1] (female) and […] in series [1] (male). Besides, the clearance in series [2] was […]. Besides, the “scaled CLint,u in rCYP3A4” value in the series with rCYP3A4 was […]. For the same compound, the intrinsic metabolic clearance (hepatocyte CLint) at 1 μM in series [3] (pH 7.4, female) was determined as […]; in series [3] (pH 7.4, male), […]; in [5], […]. Further, the anti-proliferative activity result in series [4] is listed as “anti-proliferative activity”. The oral bioavailability in [6] is given as […]. The efflux result in the series on Caco-2 (Caco-2) was “no evidence of efflux”. The Caco-2 permeability in the series with Caco-2 was […].
